pKi: −log10 of the molar value. Values belong to the compound of their own block, whether it stands above or below them. The source made the active and inactive calls. No cut-off for these calls is given here.
Tests used:
Mus musculus [1] = experiment: Hypoglycemic activity in KKAy diabetic mouse model assessed as blood glucose level at 1.6 mg/kg, po co-administered with 1 g/kg maltose and measured after 30 mins by glucometer (reference value: 491.4 +/- 22.5 mg/dl); format: functional; conditions: 0.5 h
Mus musculus [2] = experiment: Hypoglycemic activity in KKAy diabetic mouse model assessed as decrease in PBG level at 1.6 mg/kg, po co-administered with 1 g/kg maltose measured after 30 mins by glucometer relative to control; format: functional; design: scale not given: the % may be the effect or the level left; conditions: 0.5 h
[3] = Inhibition of Aspergillus niger Alpha-glucosidase incubated for 10 mins by Lineweaver-Burk plot analysis
[4] = Inhibition of C57BL/6J mouse Alpha-glucosidase incubated for 10 mins by Lineweaver-Burk plot analysis
Mus musculus [5] = experiment: Hypoglycemic activity in KKAy diabetic mouse model assessed as blood glucose level at 1.6 mg/kg, po co-administered with 1 g/kg maltose and measured after 60 mins by glucometer (reference value: 498.6 +/- 31.6 mg/dl); format: functional; conditions: 1 h
[6] = Inhibition of rice Alpha-glucosidase incubated for 10 mins by Lineweaver-Burk plot analysis; design: species or system Oryza sativa
[7] = biological target: Alpha-glucosidase (Saccharomyces cerevisiae S288c) (UniProt P53341+P38158+P07265); experiment: Inhibition of Saccharomyces cerevisiae Alpha-glucosidase at 1 mM incubated for 10 mins by absorbance based microplate spectrophotometric analysis; format: protein assay
Mus musculus [8] = experiment: Hypoglycemic activity in KKAy diabetic mouse model assessed as blood glucose level at 1.6 mg/kg, po co-administered with 1 g/kg maltose and measured after 120 mins by glucometer (reference value: 278.4 +/- 14.9 mg/dl); format: functional; conditions: 2 h
Mus musculus [9] = experiment: Hypoglycemic activity in KKAy diabetic mouse model assessed as blood glucose level at 1.6 mg/kg, po co-administered with 1 g/kg maltose and measured after 15 mins by glucometer (reference value: 453 +/- 38.6 mg/dl); format: functional; conditions: 0.25 h
Mus musculus [10] = experiment: Hypoglycemic activity in KKAy diabetic mouse model assessed as decrease in PBG level at 1.6 mg/kg, po co-administered with 1 g/kg maltose measured after 15 mins by glucometer relative to control; format: functional; design: scale not given: the % may be the effect or the level left; conditions: 0.25 h
Mus musculus [11] = experiment: Hypoglycemic activity in KKAy diabetic mouse model assessed as decrease in PBG level at 1.6 mg/kg, po co-administered with 1 g/kg maltose measured at 60 to 120 mins by glucometer; format: functional, organism-based; conditions: time 60-120 min
Mus musculus [12] = experiment: Hypoglycemic activity in KKAy diabetic mouse model assessed as blood glucose level at 1.6 mg/kg, po co-administered with maltose and measured after 30 mins by glucometer (reference value: 582.6 +/- 22.9 mg/dl); format: functional; conditions: 0.5 h
Mus musculus [13] = experiment: Hypoglycemic activity in KKAy diabetic mouse model assessed as decrease in PBG level at 1.6 mg/kg, po co-administered with maltose and measured after 60 mins by glucometer relative to control; format: functional; design: scale not given: the % may be the effect or the level left; conditions: 1 h
Mus musculus [14] = experiment: Hypoglycemic activity in KKAy diabetic mouse model assessed as blood glucose level at 1.6 mg/kg, po co-administered with maltose and measured after 60 mins by glucometer (reference value: 582.6 +/- 22.9 mg/dl); format: functional; conditions: 1 h
Mus musculus [15] = experiment: Hypoglycemic activity in KKAy diabetic mouse model assessed as molar decrease in PBG level at 1.6 mg/kg, po co-administered with maltose and measured after 30 mins by glucometer relative to control; format: functional; design: scale not given: the % may be the effect or the level left; conditions: 0.5 h
Mus musculus [16] = experiment: Hypoglycemic activity in KKAy diabetic mouse model assessed as decrease in PBG level at 1.6 mg/kg, po co-administered with maltose and measured after 15 mins by glucometer relative to control; format: functional; design: scale not given: the % may be the effect or the level left; conditions: 0.25 h
Mus musculus [17] = experiment: Hypoglycemic activity in C57BL/6J mouse assessed as blood glucose level at 0.8 mg/kg, po co-administered with maltose and measured after 15 mins by glucometer (380.8 +/- 20.6 mg/dl); format: functional; conditions: 0.25 h
Mus musculus [18] = experiment: Hypoglycemic activity in KKAy diabetic mouse model assessed as blood glucose level at 1.6 mg/kg, po co-administered with maltose and measured after 120 mins by glucometer (reference value: 582.6 +/- 22.9 mg/dl); format: functional; conditions: 2 h
Mus musculus [19] = experiment: Hypoglycemic activity in KKAy diabetic mouse model assessed as decrease in PBG level at 1.6 mg/kg, po co-administered with maltose and measured after 30 mins by glucometer relative to control; format: functional; design: scale not given: the % may be the effect or the level left; conditions: 0.5 h
Mus musculus [20] = experiment: Hypoglycemic activity in C57BL/6J mouse assessed as decrease in PBG level at 0.4 mg/kg, po co-administered with maltose and measured after 30 mins by glucometer relative to control; format: functional; design: scale not given: the % may be the effect or the level left; conditions: 0.5 h
Mus musculus [21] = experiment: Hypoglycemic activity in C57BL/6J mouse assessed as blood glucose level at 1.6 mg/kg, po co-administered with maltose and measured after 30 mins by glucometer (380.8 +/- 20.6 mg/dL); format: functional; conditions: 0.5 h
Mus musculus [22] = experiment: Hypoglycemic activity in C57BL/6J mouse assessed as decrease in PBG level at 0.8 mg/kg, po co-administered with maltose and measured after 30 mins by glucometer relative to control; format: functional; design: scale not given: the % may be the effect or the level left; conditions: 0.5 h
Mus musculus [23] = experiment: Hypoglycemic activity in C57BL/6J mouse assessed as reduction in PBG level measured per DNJ unit at 0.4 mg/kg, po co-administered with maltose and measured at 15 to 30 mins by glucometer relative to control; format: functional; design: scale not given: the % may be the effect or the level left; conditions: time 15-30 min
Mus musculus [24] = experiment: Hypoglycemic activity in C57BL/6J mouse assessed as reduction in PBG level measured per DNJ unit at 0.8 mg/kg, po co-administered with maltose and measured at 15 to 30 mins by glucometer relative to control; format: functional; design: scale not given: the % may be the effect or the level left; conditions: time 15-30 min
Mus musculus [25] = experiment: Hypoglycemic activity in KKAy diabetic mouse model assessed as blood glucose level at 1.6 mg/kg, po co-administered with maltose and measured after 15 mins by glucometer (reference value: 582.6 +/- 22.9 mg/dl); format: functional; conditions: 0.25 h
Mus musculus [26] = experiment: Hypoglycemic activity in C57BL/6J mouse assessed as reduction in PBG level measured per DNJ unit at 1.6 mg/kg, po co-administered with maltose and measured at 15 to 30 mins by glucometer relative to control; format: functional; design: scale not given: the % may be the effect or the level left; conditions: time 15-30 min
Mus musculus [27] = experiment: Hypoglycemic activity in KKAy diabetic mouse model assessed as decrease in PBG level at 1.6 mg/kg, po co-administered with maltose and measured after 120 mins by glucometer relative to control; format: functional; design: scale not given: the % may be the effect or the level left; conditions: 2 h
Mus musculus [28] = experiment: Hypoglycemic activity in C57BL/6J mouse assessed as decrease in PBG level at 0.4 mg/kg, po co-administered with maltose and measured after 15 mins by glucometer relative to control; format: functional; design: scale not given: the % may be the effect or the level left; conditions: 0.25 h
Mus musculus [29] = experiment: Hypoglycemic activity in C57BL/6J mouse assessed as blood glucose level at 0.4 mg/kg, po co-administered with maltose and measured after 30 mins by glucometer (380.8 +/- 20.6 mg/dL); format: functional; conditions: 0.5 h
Mus musculus [30] = experiment: Hypoglycemic activity in C57BL/6J mouse assessed as blood glucose level at 1.6 mg/kg, po co-administered with maltose and measured after 15 mins by glucometer (380.8 +/- 20.6 mg/dL); format: functional; conditions: 0.25 h
Mus musculus [31] = experiment: Hypoglycemic activity in C57BL/6J mouse assessed as decrease in PBG level at 0.8 mg/kg, po co-administered with maltose and measured after 15 mins by glucometer relative to control; format: functional; design: scale not given: the % may be the effect or the level left; conditions: 0.25 h
Mus musculus [32] = experiment: Hypoglycemic activity in C57BL/6J mouse assessed as blood glucose level at 0.8 mg/kg, po co-administered with maltose and measured after 30 mins by glucometer (380.8 +/- 20.6 mg/dL); format: functional; conditions: 0.5 h
Mus musculus [33] = experiment: Hypoglycemic activity in C57BL/6J mouse assessed as blood glucose level at 0.4 mg/kg, po co-administered with maltose and measured after 15 mins by glucometer (380.8 +/- 20.6 mg/dl); format: functional; conditions: 0.25 h
Mus musculus [34] = experiment: Hypoglycemic activity in C57BL/6J mouse assessed as decrease in PBG level at 1.6 mg/kg, po co-administered with maltose and measured after 30 mins by glucometer relative to control; format: functional; design: scale not given: the % may be the effect or the level left; conditions: 0.5 h
Mus musculus [35] = experiment: Hypoglycemic activity in C57BL/6J mouse assessed as decrease in PBG level at 1.6 mg/kg, po co-administered with maltose and measured after 15 mins by glucometer relative to control; format: functional; design: scale not given: the % may be the effect or the level left; conditions: 0.25 h
Mus musculus [36] = experiment: Hypoglycemic activity in C57BL/6J mouse assessed as molar reduction in PBG level at 1.6 mg/kg, po co-administered with maltose and measured after 30 mins by glucometer relative to control; format: functional; design: scale not given: the % may be the effect or the level left; conditions: 0.5 h
[37] = Self assembly property of compound in citric acid-phosphate buffer at pH 3 to 7 at 1 x 10^-4M assessed as diameter by dynamic light scattering spectrometric analysis; format: physicochemical; conditions: pH 3, 100 µM, dose 1 10^-4M
[38] = Self assembly property of the compound in water assessed as mean diameter at 1 x 10^-4 M by dynamic light scattering spectrometric analysis; format: physicochemical; conditions: buffer, 100 µM; dose 1 10^-4M
[39] = Self assembly property of the compound in water assessed as diameter at 1 x 10^-4 M by transmission electron microscopic analysis; format: physicochemical; conditions: buffer, 100 µM; dose 1 10^-4M
[40] = Self assembly property of compound in citric acid-phosphate buffer at pH 2 at 1 x 10^-4 M assessed as diameter by dynamic light scattering spectrometric analysis; format: physicochemical; conditions: pH 2, 100 µM, dose 1 10^-4M

- pKi [3]: 5.44
- pKi [4]: 7.41
- pKi [6]: 7.77
- inhibition [7]: inactive
Structure (SMILES): OC[C@H]1NC[C@H](O)[C@@H](O)[C@@H]1O [DUVOGLUSTAT]
- Activity (Mus musculus [1]): 476.4 mg/dL
- Activity (Mus musculus [2]): 3.1%
- Activity (Mus musculus [5]): 489 mg/dL
- Activity (Mus musculus [8]): 296.4 mg/dL
- Activity (Mus musculus [9]): 354 mg/dL
- Activity (Mus musculus [10]): 21.8%
- Activity (Mus musculus [11]): inactive

- pKi [3]: 4.69
- pKi [4]: 5.84
- pKi [6]: 6.74
- inhibition [7]: inactive
Structure (SMILES): OCCN1C[C@H](O)[C@@H](O)[C@H](O)[C@H]1CO [MIGLITOL]
- Activity (Mus musculus [12]): 535.8 mg/dL
- Activity (Mus musculus [13]): 7.7%
- Activity (Mus musculus [14]): 512.4 mg/dL
- Activity (Mus musculus [15]): 1.1%
- Activity (Mus musculus [16]): 3.2%
- Activity (Mus musculus [17]): 331.9 mg/dL
- Activity (Mus musculus [18]): 397.2 mg/dL
- Activity (Mus musculus [19]): 8.6%
- Activity (Mus musculus [20]): 8.2%
- Activity (Mus musculus [21]): 297.4 mg/dL
- Activity (Mus musculus [22]): 16.5%
- Activity (Mus musculus [23]): 4.2%
- Activity (Mus musculus [24]): 4.3%
- Activity (Mus musculus [25]): 532.2 mg/dL
- Activity (Mus musculus [26]): 2.8%
- Activity (Mus musculus [27]): 9.4%
- Activity (Mus musculus [28]): 6.2%
- Activity (Mus musculus [29]): 349.5 mg/dL
- Activity (Mus musculus [30]): 298.8 mg/dL
- Activity (Mus musculus [31]): 10.7%
- Activity (Mus musculus [32]): 318.2 mg/dL
- Activity (Mus musculus [33]): 348.8 mg/dL
- Activity (Mus musculus [34]): 21.9%
- Activity (Mus musculus [35]): 19.6%
- Activity (Mus musculus [36]): 2.8%

- Activity [37]: ~ 250 nm
- pKi [3]: 4.43
- pKi [4]: 4.81
- Activity [38]: 252 nm
- pKi [6]: 6.36
- inhibition [7]: inactive
- Activity [39]: 79 nm
- Activity [40]: 211 nm
Structure (SMILES): CCCCCCCCCCCCCCCCCCNC(=O)CN(Cc1cn(CCCN2C[C@H](O)[C@@H](O)[C@H](O)[C@H]2CO)nn1)C(=O)CN(Cc1cn(CCCN2C[C@H](O)[C@@H](O)[C@H](O)[C@H]2CO)nn1)C(=O)CN(Cc1cn(CCCN2C[C@H](O)[C@@H](O)[C@H](O)[C@H]2CO)nn1)C(=O)CN(Cc1cn(CCCN2C[C@H](O)[C@@H](O)[C@H](O)[C@H]2CO)nn1)C(C)=O

Source: ChEMBL document CHEMBL5543113, “Amphiphilic α-Peptoid-deoxynojirimycin Conjugate-based Multivalent Glycosidase Inhibitor for Hypoglycemic Effect and Fluorescence Imaging” (J Med Chem, 2024)
